# Assay results reported in ChEMBL document CHEMBL4831506, “Discovery of novel trimethoxyphenylbenzo[d]oxazoles as dual tubulin/PDE4 inhibitors capable of inducing apoptosis at G2/M phase arrest in glioma and lung cancer cells” (Eur J Med Chem, 2021).
# pIC50: −log10 of the molar value.
# Columns and labels:
# Sus scrofa [1] = species: Sus scrofa; experiment: Inhibition of pig brain tubulin polymerization at 10 uM by spectrometric method relative to control; type: tissue-based
# A549 [2] = experiment: Antiproliferative activity against human A549 cells after 48 hrs by MTT assay; type: functional, cell-based; settings: A549, 48 h
# MCF7 = experiment: Antiproliferative activity against human MCF7 cells after 48 hrs by MTT assay; type: functional, cell-based; settings: MCF7, 48 h
# U-251 [3] = experiment: Antiproliferative activity against human U-251 cells after 48 hrs by MTT assay; type: functional, cell-based; settings: U-251, 48 h
# [4] = (§1) Inhibition of pig brain tubulin polymerization at 1 uM by spectrometric method relative to control; type: tissue-based, Sus scrofa
# NCI-H460 = experiment: Antiproliferative activity against human NCI-H460 cells after 48 hrs by MTT assay; type: functional, cell-based; settings: NCI-H460, 48 h
# Sus scrofa [5] = species: Sus scrofa; experiment: as §1; type: tissue-based
# A549 [6] = experiment: Cell cycle arrest in human A549 cells assessed as S phase at 500 nM measured after 24 hrs by propidium iodide staining based flow cytometry analysis (reference value: 14.78%); type: functional
# U-251 [7] = experiment: Induction of apoptosis in human U-251 cells assessed as increase in necrotic cells at 200 nM measured after 24 hrs by PI/FITC analysis (reference value: 0.301%); type: functional
# U-251 [8] = experiment: Induction of apoptosis in human U-251 cells assessed as increase in viable cells at 200 nM measured after 24 hrs by PI/FITC analysis (reference value: 98.3%); type: functional
# U-251 [9] = experiment: Induction of apoptosis in human U-251 cells assessed as increase in early apoptotic cells at 200 nM measured after 24 hrs by PI/FITC analysis (reference value: 1.12%); type: functional
# U-251 [10] = experiment: Cell cycle arrest in human U-251 cells assessed as G2/M phase at 200 nM measured after 24 hrs by propidium iodide staining based flow cytometry analysis (reference value: 14.43%); type: functional
# A549 [11] = experiment: Induction of apoptosis in human A549 cells assessed as increase in early apoptotic cells at 500 nM measured after 24 hrs by PI/FITC analysis (reference value: 0.955%); type: functional
# U-251 [12] = experiment: Cell cycle arrest in human U-251 cells assessed as G0/G1 phase at 200 nM measured after 24 hrs by propidium iodide staining based flow cytometry analysis (reference value: 67.34%); type: functional
# A549 [13] = experiment: Cell cycle arrest in human A549 cells assessed as G2/M phase at 500 nM measured after 24 hrs by propidium iodide staining based flow cytometry analysis (reference value: 6.08%); type: functional
# A549 [14] = experiment: Cell cycle arrest in human A549 cells assessed as G0/G1 phase at 500 nM incubated for 24 hrs by propidium iodide staining based flow cytometry analysis (reference value: 79.14%); type: functional
# U-251 [15] = experiment: Induction of apoptosis in human U-251 cells assessed as increase in late apoptotic cells at 200 nM measured after 24 hrs by PI/FITC analysis (reference value: 0.311%); type: functional
# U-251 [16] = experiment: Cell cycle arrest in human U-251 cells assessed as S phase at 200 nM measured after 24 hrs by propidium iodide staining based flow cytometry analysis (reference value: 18.23%); type: functional
# A549 [17] = experiment: Induction of apoptosis in human A549 cells assessed as increase in necrotic cells at 500 nM measured after 24 hrs by PI/FITC analysis (reference value: 0.365%); type: functional
# A549 [18] = experiment: Induction of apoptosis in human A549 cells assessed as increase in viable cells at 500 nM measured after 24 hrs by PI/FITC analysis (reference value: 98.4%); type: functional
# A549 [19] = experiment: Induction of apoptosis in human A549 cells assessed as increase in late apoptotic cells at 500 nM measured after 24 hrs by PI/FITC analysis (reference value: 0.955%); type: functional
# [20] = target: 3',5'-cyclic-AMP phosphodiesterase 4C (Homo sapiens, UniProt Q08493); experiment: Inhibition of PDE4 CAT (unknown origin)
# Chain of 3',5'-cyclic-AMP phosphodiesterase 4C (Q08493 whole entry): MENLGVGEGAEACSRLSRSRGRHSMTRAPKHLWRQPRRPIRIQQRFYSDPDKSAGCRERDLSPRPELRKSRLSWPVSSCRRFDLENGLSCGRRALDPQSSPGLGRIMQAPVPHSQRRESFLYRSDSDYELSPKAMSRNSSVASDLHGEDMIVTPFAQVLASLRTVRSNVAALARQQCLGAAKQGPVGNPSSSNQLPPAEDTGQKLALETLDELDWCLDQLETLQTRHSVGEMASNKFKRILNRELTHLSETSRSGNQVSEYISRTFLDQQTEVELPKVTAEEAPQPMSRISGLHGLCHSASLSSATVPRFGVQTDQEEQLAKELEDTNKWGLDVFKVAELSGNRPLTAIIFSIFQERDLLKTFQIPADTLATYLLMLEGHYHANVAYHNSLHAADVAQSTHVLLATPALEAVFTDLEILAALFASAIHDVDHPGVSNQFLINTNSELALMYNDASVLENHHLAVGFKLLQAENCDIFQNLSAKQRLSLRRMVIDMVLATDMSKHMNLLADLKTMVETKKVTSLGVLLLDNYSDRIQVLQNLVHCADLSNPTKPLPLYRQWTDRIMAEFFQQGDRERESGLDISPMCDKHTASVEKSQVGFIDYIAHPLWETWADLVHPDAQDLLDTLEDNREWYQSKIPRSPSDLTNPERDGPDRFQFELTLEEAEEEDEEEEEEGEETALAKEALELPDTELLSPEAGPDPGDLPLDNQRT
Structure (SMILES),pIC50 (A549 [2]),pIC50 (MCF7),pIC50 (U-251 [3]),pIC50 (NCI-H460),other results
COc1cc(-c2cccc3nc(-c4cccc(O)c4)oc23)cc(OC)c1OC,5.70,< 4.60,5.26,5.72,inhibition (Sus scrofa [1]): 43%; pIC50 [4]: 5.30
COc1ccc(-c2nc3cccc(-c4cc(OC)c(OC)c(OC)c4)c3o2)cc1,5.66,< 4.60,< 4.60,5.46,–
COc1cc(-c2cccc3nc(-c4ccc(F)cc4)oc23)cc(OC)c1OC,5.06,< 4.60,< 4.60,5.06,–
COc1cc(-c2cccc3oc(-c4ccccc4)nc23)cc(OC)c1OC,< 4.60,< 4.60,< 4.60,5.05,–
COc1cc(-c2cccc3nc(-c4ccc(C)cc4)oc23)cc(OC)c1OC,6.17,< 4.60,5.49,5.72,inhibition (Sus scrofa [1]): 18%
COc1cc(-c2cccc3oc(-c4ccc(F)cc4)nc23)cc(OC)c1OC,< 4.60,< 4.60,< 4.60,4.66,–
COc1cc(-c2cccc3oc(-c4ccc(Cl)cc4)nc23)cc(OC)c1OC,< 4.60,< 4.60,< 4.60,5.07,–
COc1cc(-c2cccc3nc(-c4cccc(F)c4)oc23)cc(OC)c1OC,5.59,< 4.60,5.54,5.48,–
COc1ccc(-c2nc3c(-c4cc(OC)c(OC)c(OC)c4)cccc3o2)cc1OC,4.70,< 4.60,< 4.60,5.05,–
COc1cc(-c2cccc3nc(-c4cccc(C)c4)oc23)cc(OC)c1OC,4.78,< 4.60,< 4.60,< 4.60,–
COc1ccc(-c2cccc3nc(-c4ccc5cc[nH]c5c4)oc23)c(OC)c1OC,5.02,< 4.60,5.02,< 4.60,–
COc1ccc(-c2nc3c(-c4cc(OC)c(OC)c(OC)c4)cccc3o2)cc1F,< 4.60,< 4.60,4.71,4.70,–
COc1ccc(-c2nc3cccc(-c4cc(OC)c(OC)c(OC)c4)c3o2)cc1OC,5.55,< 4.60,5.89,< 4.60,–
COc1cc(-c2cccc3nc(-c4ccc(Cl)cc4)oc23)cc(OC)c1OC,5.25,< 4.60,5.80,< 4.60,–
COc1cc(-c2cccc3nc(-c4ccccc4)oc23)cc(OC)c1OC,4.69,< 4.60,5.46,5.17,–
COc1cc(-c2cccc3nc(-c4ccc(Br)cc4)oc23)cc(OC)c1OC,< 4.60,< 4.60,< 4.60,< 4.60,–

Structure (SMILES),pIC50 (A549 [2]),pIC50 (MCF7),pIC50 (U-251 [3]),pIC50 (NCI-H460),other results
COc1cc(-c2nc3cccc(-c4cc(OC)c(OC)c(OC)c4)c3o2)ccc1O,4.80,< 4.60,4.99,5.70,–
COc1cc(-c2cccc3oc(-c4ccc(C)cc4)nc23)cc(OC)c1OC,4.69,< 4.60,4.79,5.51,–
COc1cc(-c2cccc3nc(-c4cccc(N)c4)oc23)cc(OC)c1OC,5.33,< 4.60,5.66,5.59,inhibition (Sus scrofa [1]): 19%; inhibition (Sus scrofa [5]): 14%
COc1ccc(/C=C\c2cc(OC)c(OC)c(OC)c2)cc1O [COMBRETASTATIN A4],6.22,6.38,6.89,7.12,inhibition (Sus scrofa [1]): 94%; Activity (A549 [6]): 22.31%; Activity (U-251 [7]): 1.96%; Activity (U-251 [8]): 92.1%; Activity (U-251 [9]): 4.02%; Activity (U-251 [10]): 42.9%; Activity (A549 [11]): 10.1%; Activity (U-251 [12]): 34.64%; Activity (A549 [13]): 40.07%; Activity (A549 [14]): 37.63%; Activity (U-251 [15]): 11.9%; inhibition (Sus scrofa [5]): 52%; Activity (U-251 [16]): 22.47%; Activity (A549 [17]): 0.412%; Activity (A549 [18]): 77.9%
COc1cc(-c2cccc3nc(-c4cccc(Cl)c4)oc23)cc(OC)c1OC,< 4.60,< 4.60,4.73,< 4.60,–
COc1cc(-c2cccc3nc(-c4cccc(Br)c4)oc23)cc(OC)c1OC,5.68,< 4.60,5.17,5.42,–
COc1cc(-c2cccc3oc(-c4cccc(F)c4)nc23)cc(OC)c1OC,< 4.60,< 4.60,< 4.60,< 4.60,–
COc1ccc(C2CNC(=O)C2)cc1OC1CCCC1 (stereo not drawn) [ROLIPRAM],< 4.00,< 4.00,< 4.00,< 4.00,Activity (A549 [6]): 15.73%; Activity (U-251 [7]): 0.745%; Activity (U-251 [8]): 96.4%; Activity (U-251 [9]): 1.96%; Activity (U-251 [10]): 14.73%; Activity (A549 [11]): 1.34%; Activity (U-251 [12]): 68.42%; Activity (A549 [13]): 4.56%; Activity (A549 [14]): 79.7%; Activity (U-251 [15]): 0.865%; Activity (U-251 [16]): 16.85%; Activity (A549 [19]): 0.291%; Activity (A549 [17]): 0.216%; Activity (A549 [18]): 98.2%
COc1cc(-c2cccc3nc(-c4cccs4)oc23)cc(OC)c1OC,4.90,< 4.60,5.52,5.80,inhibition (Sus scrofa [1]): 0%; pIC50 [20]: 6.24
COc1cc(-c2cccc3nc(-c4ccc(N)cc4)oc23)cc(OC)c1OC,6.14,< 4.60,5.98,6.51,inhibition (Sus scrofa [1]): 36%; inhibition (Sus scrofa [5]): 11%
COc1ccc(-c2nc3cccc(-c4cc(OC)c(OC)c(OC)c4)c3o2)cc1F,5.74,< 4.60,5.77,5.55,–
COc1cc2c(c(OC)c1OC)-c1ccc(OC)c(=O)cc1[C@@H](NC(C)=O)CC2 [COLCHICINE],7.62,7.40,7.77,–,–
COc1cc(-c2cccc3nc(-c4ccco4)oc23)cc(OC)c1OC,4.99,< 4.60,4.97,5.59,inhibition (Sus scrofa [1]): 0%; pIC50 [20]: 5.48
COc1cccc(-c2nc3cccc(-c4cc(OC)c(OC)c(OC)c4)c3o2)c1,5.46,< 4.60,< 4.60,< 4.60,–
COc1cc(OC)cc(-c2nc3c(-c4cc(OC)c(OC)c(OC)c4)cccc3o2)c1,4.79,< 4.60,< 4.60,5.24,–
